Reference: publication PMC6814236, “Monitoring and characterizing soluble and membrane-bound ectonucleotidases CD73 and CD39” (PLoS ONE, 2019)
pIC50: −log10 of the molar value.

Columns and labels:
[1] = biological target: T1, membrane-associated CD73 of MDA-MB-231 cells (Homo sapiens, UniProt P21589); assay: Cell-based membrane-associated CD73 activity (AMP-Glo cell-based assay)
T1 construct: cell-based membrane-associated CD73 from MDA-MB-231 following AMP-Glo cell-based assay; endogenous in cells; host or cells: MDA-MB-231
T1 sequence (P21589 27-574): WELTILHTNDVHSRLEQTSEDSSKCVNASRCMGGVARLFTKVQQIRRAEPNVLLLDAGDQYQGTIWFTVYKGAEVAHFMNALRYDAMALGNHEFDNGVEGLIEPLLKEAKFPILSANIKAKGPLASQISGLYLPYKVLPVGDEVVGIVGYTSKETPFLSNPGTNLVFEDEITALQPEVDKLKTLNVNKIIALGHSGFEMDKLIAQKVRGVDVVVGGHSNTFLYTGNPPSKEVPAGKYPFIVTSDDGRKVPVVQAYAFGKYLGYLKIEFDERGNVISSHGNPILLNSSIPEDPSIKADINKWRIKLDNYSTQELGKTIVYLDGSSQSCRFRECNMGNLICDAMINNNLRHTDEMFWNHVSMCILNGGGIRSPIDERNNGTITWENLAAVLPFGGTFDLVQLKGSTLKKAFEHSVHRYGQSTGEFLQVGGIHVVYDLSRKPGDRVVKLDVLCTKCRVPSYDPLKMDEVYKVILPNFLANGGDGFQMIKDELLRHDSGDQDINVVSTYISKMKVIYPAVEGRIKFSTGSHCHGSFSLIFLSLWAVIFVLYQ
Experimental: • Adherent Cells preparation and assay protocol. Cells grown in 75cm^2 flasks were trypsinized and counted, and were diluted with full medium, and plated to a tissue culture grade solid white or clear bottom plate, at cell density of 25K cells in full medium (10% FBS and 1% Pen/Strep) per well, and kept overnight at 37°C in a 5% CO2 incubator. Fresh medium was added an hour before use by pipetting out ¾ volume of overnight medium from each well and replaced with a ¾ volume of fresh full growing medium. Cells were washed twice with HBSS by taking out whole medium from each well and replaced with fresh 100μl of HBSS to each well. […]
For CD73 activity using AMP as substrate, 25μl aliquots were withdrawn from each well at the desired time point and added to assay solid white plate (Corning Costar 3912 or equivalent) followed by the addition of 25μl of AMP-Glo™ Reagent I to each well, mixed well and incubated for 30min at 23°C.This was followed by the addition of 50μl per well of AMP-Glo™ Detection Solution (1ml of Kinase-Glo™ One Solution mixed with 10μl of AMP-Glo™ Reagent II), see AMP-Glo™ TM#384. This was followed by incubating the mixture for 60min at 23°C, before reading the plate using a luminometer. […]

[2] = tested on: T2, membrane-associated CD39 of Farage cells; assay: Cell-based membrane-associated CD39 activity; design: species or system human; settings: 50μM inhibitor, Farage cells 200K per ml, 5 μM ATP, 37°C
T2 construct: endogenous in cells; host or cells: Farage
Experimental: For CD39 activity, since it uses both ADP and ATP, we determined its activity using 5 μM final concentration each, as substrate as described above. In a separate plate or microcentrifuge tube, a 25μl aliquots were withdrawn from each well at desired time point and delivered into an assay solid white plate (Corning Costar 3912 or equivalent).
For ADP as substrate, detection of remaining ADP was carried out by preparing AMP Detection Solution (adding 10μl AMP-Glo™ Reagent II to one-ml of Kinase-Glo® One Solution, gently mixing well by inverse tube couple times). To the 25 μl aliquoted from the medium supernatant that was cooled down to room temperature, 25μl of AMP Detection Solution is added to each well, mixed well and incubated for 60min at 23°C, the plates were read using luminometer.
For ATP as substrate, detection of remaining ATP, was carried out using 25μl withdrawn from the medium supernatant that was cooled down to room temperature and 25μl of Kinase-Glo® One Solution were added to each well, mixed well and incubated for 10min at 23°C, then the plate was read using luminometer.
• B Suspension cells. Cells were harvested and washed two times with HBSS by centrifugation at 1,000 rpm at room temperature for 8~10min, discarding the supernatant and cell pellets were diluted to a desired cell number per ml before experiments. […]

SMILES	inhibition of membrane-associated CD73 activity ([1]; 50μM inhibitor, 25k MDA-MB-231 cells per well, 10μM AMP, 37°C, time course)	pIC50 ([1]; 25K cells per well, 5μM AMP, 90min at 37°C)	inhibition of membrane-associated CD39 activity [2]
Nc1ncnc2c1ncn2[C@@H]1O[C@H](COP(=O)(O)CP(=O)(O)O)[C@@H](O)[C@H]1O [AMP-CP, Adenosine 5'-(α, β-methylene) diphosphate]	inhibited	5.68	–
[Na+].[Na+].[Na+].[Na+].[Na+].[Na+].[O]=[W](=[O])([O-])[O-].[O]=[W](=[O])([O-])[O-].[O]=[W](=[O])([O-])[O-].[O]=[W](=[O])=[O].[O]=[W](=[O])=[O].[O]=[W](=[O])=[O].[O]=[W](=[O])=[O].[O]=[W](=[O])=[O].[O]=[W](=[O])=[O].[O]=[W](=[O])=[O].[O]=[W](=[O])=[O].[O]=[W](=[O])=[O] [POM1, Sodium metatungstate]	–	–	inhibited
